Experimental data taken from publication PMC5514901, “Synthesis and evaluation of anthranilamide-based derivatives as FXa inhibitors” (Oncotarget, 2017).

Experiments:
[1] = target: T1, human FXa (Homo sapiens, UniProt P00742); test: Inhibition activity measurement against FXa (chromogenic substrate CS-11(22)); type: biochemical; details: for IC50: human FXa, chromogenic substrate, 37°C, read at 405 nm; for FXa inhibitory activity (in words): SAR statement in text
T1 construct: purchased Hyphen BioMed
T1 sequence (P00742 235-488 limits assumed): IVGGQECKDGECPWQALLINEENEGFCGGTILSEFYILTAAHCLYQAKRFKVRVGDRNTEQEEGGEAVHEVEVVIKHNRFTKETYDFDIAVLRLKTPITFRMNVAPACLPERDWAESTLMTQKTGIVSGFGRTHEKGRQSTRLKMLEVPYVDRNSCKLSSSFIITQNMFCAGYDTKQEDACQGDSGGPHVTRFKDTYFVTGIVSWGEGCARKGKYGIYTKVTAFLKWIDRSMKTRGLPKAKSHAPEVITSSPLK
T1 sequence (P00742 41-179 partner limits assumed): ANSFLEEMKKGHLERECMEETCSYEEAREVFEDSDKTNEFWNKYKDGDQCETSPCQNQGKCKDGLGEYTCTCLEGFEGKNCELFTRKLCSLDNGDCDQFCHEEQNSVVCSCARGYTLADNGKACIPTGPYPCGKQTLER
Experimental: The inhibition of FXa was measured using human FXa (Hyphen BioMed, city, Paris, FRA) and chromogenic substrate CS-11(22) (Hyphen BioMed, Paris, FRA) in 384-well microtiter plates at room temperature. […] 2 μL of FXa (56.8 nM), 16 μL of Tris buffer (adjust to pH 7.4 with HCl containing 0.3 M NaCl and 50 mM Tris) and 3 μL of test compound were added to the well, respectively. The negative control was composed of the same mixed solutions except replacing test compound with DMSO. […] After incubated at 37°C for 5 min, 8 μL of FXa substrate solution (3.5 mM) was added and then incubated at 37°C for 25 min. The FXa activity was measured at 405 nm using a SpectraMax M5 (Molecular Devices, Sunnyvale, CA, USA). The IC50 was calculated by the software named SPSS (IBM, North Castle, NY, USA) and the Probit function in it.

Structure (SMILES) | IC50 [1] | melting point | FXa inhibitory activity (in words) [1]
O=C(Nc1ccc(Cl)cc1C(=O)Nc1ccc(-n2ccccc2=O)cc1)c1ccc(Br)s1 [6a-a, 5-bromo-N-(4-chloro-2-((4-(2-oxopyridin-1(2H)-yl)ph-enyl)carbamoyl)phenyl)thiophene-2-carboxamide] | 121 nM | > 250 °C | 
Cc1cccc(C(=O)Nc2ccc(-n3ccccc3=O)cc2)c1NC(=O)c1ccc(Br)s1 [6a-c, 5-bromo-N-(2-methyl-6-((4-(2-oxopyridin-1(2H)-yl)ph-enyl)carbamoyl)phenyl)thiophene-2-carboxamide] | > 1000 nM | > 250 °C | poor IC50 values at a micromole level
O=C(Nc1ccccc1C(=O)Nc1ccc(N2CCOCC2=O)cc1)c1ccc(Br)s1 [6a-d, 5-bromo-N-(2-((4-(3-oxomorpholino)phenyl)carbamo-yl)phenyl)thiophene-2-carboxamide] | 113 nM | > 250 °C | 
Cc1ccc(NC(=O)c2ccc(Br)s2)c(C(=O)Nc2ccc(N3CCOCC3=O)cc2)c1 [6a-f, 5-bromo-N-(4-methyl-2-((4-(3-oxomorpholino)phenyl)carbamoyl)phenyl)thiophene-2-carboxamide] | 54.8 nM | > 250 °C | 
Cc1cccc(C(=O)Nc2ccc(N3CCOCC3=O)cc2)c1NC(=O)c1ccc(Br)s1 [6a-g, 5-bromo-N-(2-methyl-6-((4-(3-oxomorpholino)phenyl)carbamoyl)phenyl)thiophene-2-carboxamide] | > 1000 nM | > 250 °C | poor IC50 values at a micromole level
O=C(Nc1ccc(Cl)cc1C(=O)Nc1ccc(-n2ccccc2=O)cc1)c1ccc(Cl)nc1 [6h-a, 6-chloro-N-(4-chloro-2-((4-(2-oxopyridin-1(2H)-yl)ph-enyl)carbamoyl)phenyl)nicotinamide] | 427 nM | > 250 °C | 
Cc1ccc(NC(=O)c2ccc(Cl)nc2)c(C(=O)Nc2ccc(-n3ccccc3=O)cc2)c1 [6h-b, 6-chloro-N-(4-methyl-2-((4-(2-oxopyridin-1(2H)-yl)ph-enyl)carbamoyl)phenyl)nicotinamide] | 212 nM | > 250 °C | 

The next lines start with the values.

IC50 [1] | melting point | FXa inhibitory activity (in words) [1] | Structure (SMILES)
> 1000 nM | > 250 °C |  | Cc1ccc(C(=O)Nc2ccccc2C(=O)Nc2ccc(-n3ccccc3=O)cc2)s1 [6b, 5-methyl-N-(2-((4-(2-oxopyridin-1(2H)-yl)phenyl)carb-amoyl)phenyl)thiophene-2-carboxamide]
> 1000 nM | > 250 °C |  | O=C(Nc1ccccc1C(=O)Nc1ccc(-n2ccccc2=O)cc1)c1ccc(Cl)o1 [6c, 5-chloro-N-(2-((4-(2-oxopyridin-1(2H)-yl)phenyl)carb-amoyl)phenyl)furan-2-carboxamide]
> 1000 nM | > 250 °C |  | O=C(Nc1ccccc1C(=O)Nc1ccc(-n2ccccc2=O)cc1)c1ccc(Br)o1 [6d, 5-bromo-N-(2-((4-(2-oxopyridin-1(2H)-yl)phenyl)carb-amoyl)phenyl)furan-2-carboxamide]
 | > 250 °C |  | O=C(Nc1ccccc1C(=O)Nc1ccc(-n2ccccc2=O)cc1)c1ccc([N+](=O)[O-])cc1 [6e, 2-(4-nitrobenzamido)-N-(4-(2-oxopyridin-1 (2H)-yl)ph-enyl)benzamide]
> 1000 nM | > 250 °C |  | N#Cc1ccc(C(=O)Nc2ccccc2C(=O)Nc2ccc(-n3ccccc3=O)cc2)cc1 [6f, 2-(4-cyanobenzamido)-N-(4-(2-oxopyridin-1(2H)-yl)phenyl)benzamide]
> 1000 nM | > 250 °C |  | COc1ccc(C(=O)Nc2ccccc2C(=O)Nc2ccc(-n3ccccc3=O)cc2)cc1[N+](=O)[O-] [6g, 4-methoxy-3-nitro-N-(2-((4-(2-oxopyridin-1(2H)-yl)ph-enyl)carbamoyl)phenyl)benzamide]
278 nM | > 250 °C |  | O=C(Nc1ccccc1C(=O)Nc1ccc(-n2ccccc2=O)cc1)c1ccc(Cl)nc1 [6h, 6-chloro-N-(2-((4-(2-oxopyridin-1(2H)-yl)phenyl)carb-amoyl)phenyl)nicotinamide]
